Laboratory results from article PMC9151729, “Experimental solubility and thermodynamic modeling of empagliflozin in supercritical carbon dioxide” (Scientific Reports, 2022).
Converted amounts (≈) assume the structure as drawn. Read-outs that look alike come from different tables or passages of the source. Marks after values point to notes of the source that are not given here.

Assays:
[1] = Solubility of empagliflozin in supercritical carbon dioxide (isobaric-isothermal method, UV-Vis at 276 nm); type: physicochemical; conditions: for solubility thermodynamic at 60 min: supercritical carbon dioxide (ScCO2), thermodynamic from solid, read-out: S (equilibrium solubility) in ScCO2
Protocol: The detailed discussion of the solubility apparatus and equilibrium cell has been presented in our earlier studies (Fig. 2)[19],[25],[40],[41]. However, a brief description about the apparatus is presented in this section. This method may be classified as an isobaric-isothermal method. Each measurement was carried out with high precision and temperatures and pressures were controlled within ± 0.1 K and ± 0.1 MPa, respectively. For all measurement, 1 g of empagliflozin drug was used. As mentioned in our previous works, the equilibrium was observed within 60 min. After equilibrium, 600 µL saturated ScCO2 sample was collected via 2-status 6-way port valve in a DMSO preloaded vial. After discharging 600 µL saturated ScCO2, the port valve was washed with 1 ml DMSO. Thus, the total saturation solution was 5 ml. Each measurement was repeated thrice and their average values were reported. Mole fraction is obtained as follows:1 y2=ndrug/ndrug+nCO2 where nsolute is the moles number of the drug, and nCO2 is the moles number of CO2 in the sampling loop.
Further, the above quantities are given as:2 nsolute=Cs·Vs/Ms 3 nCO2=V1·ρ/MCO2 where Cs is the drug concentration in saturated sample vial in g/L. The volume of the sampling loop and vial collection are V1(L) = 600 × 10^–6 m^3 and Vs(L) = 5 × 10^–3 m^3, respectively. The Ms and MCO2 are the molecular weight of drug and CO2, respectively. Solubility is also described as4 S=CSVs/V1
The relation between S and y2 is5 S=ρMs/MCO2y2/1-y2
A UV–Visible spectrophotometer (Model UNICO-4802) and DMSO solvent were used for the measurement of empagliflozin solubility. The samples were analyzed at 276 nm.

[2] = Total, sublimation and solvation enthalpies from Chrastil, Reformulated Chrastil and Bartle et al. model correlations of the solubility data; type: physicochemical
Text: It is an empirical model and mathematically stated as:7 lny2P/Pref=A2+B2/T+C2ρ-ρref where A2-C2 are model constants. From parameter B2 , one can estimate sublimation enthalpy using the relation, ΔsubH=-B2R , in which R is universal gas constant.
It is a semi-empirical model and mathematically stated as:9 c2=ρ1κexpA4+B4/T where κ,A4andB4 are model constants.
It is a semi-empirical model and mathematically explained as:15 y2=RTρ1/MCFf^·^κ^′-1expA11+B11/T where κ^′,A10andB10 are model constants.
The density-based models considered in this work have different number of adjustable parameters. These parameters range from three to six numbers. The correlating ability of the models is depicted in Figs. 5, 6, 7, 8, 9, 10, 11. From the results, it is clear that all the models are able to correlate the data reasonably well and maximum AARD% is observed to be 10.4%. It is believed that, more parameter models are able to correlate the data more accurately. Sodefian et al., model is able to correlate the data with AARD = 5.84% and Akaike’s information criterion (AIC = − 637.59) (more relevant information is presented in the following section). Among density models, Bian et al., model (five parameters model) is able to correlate the data well and corresponding AARD% is 5.1%. […] Further, Chrastil and Reformulated Chrastil models are able to provide the total enthalpy. Whereas, Bartle et al., model parameters are able to provide sublimation enthalpy of the empagliflozin drug. From the magnitude difference between the total and sublimation enthalpies, a solvation enthalpy is calculated.

[3] = 308 K, 12 MPa, ScCO2 density 769 kg/m^3
[4] = 308 K, 15 MPa, ScCO2 density 817 kg/m^3
[5] = 308 K, 18 MPa, ScCO2 density 849 kg/m^3
[6] = 308 K, 21 MPa, ScCO2 density 875 kg/m^3
[7] = 308 K, 24 MPa, ScCO2 density 896 kg/m^3
[8] = 308 K, 27 MPa, ScCO2 density 914 kg/m^3
[9] = 318 K, 12 MPa, ScCO2 density 661 kg/m^3
[10] = 318 K, 15 MPa, ScCO2 density 744 kg/m^3
[11] = 318 K, 18 MPa, ScCO2 density 791 kg/m^3
[12] = 318 K, 21 MPa, ScCO2 density 824 kg/m^3
[13] = 318 K, 24 MPa, ScCO2 density 851 kg/m^3
[14] = 318 K, 27 MPa, ScCO2 density 872 kg/m^3
[15] = 328 K, 12 MPa, ScCO2 density 509 kg/m^3
[16] = 328 K, 15 MPa, ScCO2 density 656 kg/m^3
[17] = 328 K, 18 MPa, ScCO2 density 725 kg/m^3
[18] = 328 K, 21 MPa, ScCO2 density 769 kg/m^3
[19] = 328 K, 24 MPa, ScCO2 density 802 kg/m^3
[20] = 328 K, 27 MPa, ScCO2 density 829 kg/m^3
[21] = 338 K, 12 MPa, ScCO2 density 388 kg/m^3
[22] = 338 K, 15 MPa, ScCO2 density 557 kg/m^3
[23] = 338 K, 18 MPa, ScCO2 density 652 kg/m^3
[24] = 338 K, 21 MPa, ScCO2 density 710 kg/m^3
[25] = 338 K, 24 MPa, ScCO2 density 751 kg/m^3
[26] = 338 K, 27 MPa, ScCO2 density 783 kg/m^3

OC[C@H]1O[C@@H](c2ccc(Cl)c(Cc3ccc(O[C@H]4CCOC4)cc3)c2)[C@H](O)[C@@H](O)[C@@H]1O [empagliflozin]
y2 solubility in ScCO2 (mole fraction) [1, 3]: 0.0814 y2 × 10^4 (mole fraction) | y2 solubility in ScCO2 (mole fraction) [1, 4]: 0.1266 y2 × 10^4 (mole fraction) | y2 solubility in ScCO2 (mole fraction) [1, 5]: 0.1327 y2 × 10^4 (mole fraction) | y2 solubility in ScCO2 (mole fraction) [1, 6]: 0.1411 y2 × 10^4 (mole fraction) | y2 solubility in ScCO2 (mole fraction) [1, 7]: 0.1501 y2 × 10^4 (mole fraction) | y2 solubility in ScCO2 (mole fraction) [1, 8]: 0.1806 y2 × 10^4 (mole fraction) | y2 solubility in ScCO2 (mole fraction) [1, 9]: 0.0706 y2 × 10^4 (mole fraction) | y2 solubility in ScCO2 (mole fraction) [1, 10]: 0.1182 y2 × 10^4 (mole fraction) | y2 solubility in ScCO2 (mole fraction) [1, 11]: 0.1515 y2 × 10^4 (mole fraction) | y2 solubility in ScCO2 (mole fraction) [1, 12]: 0.1601 y2 × 10^4 (mole fraction) | y2 solubility in ScCO2 (mole fraction) [1, 13]: 0.2040 y2 × 10^4 (mole fraction) | y2 solubility in ScCO2 (mole fraction) [1, 14]: 0.2079 y2 × 10^4 (mole fraction) | y2 solubility in ScCO2 (mole fraction) [1, 15]: 0.0611 y2 × 10^4 (mole fraction) | y2 solubility in ScCO2 (mole fraction) [1, 16]: 0.1044 y2 × 10^4 (mole fraction) | y2 solubility in ScCO2 (mole fraction) [1, 17]: 0.1620 y2 × 10^4 (mole fraction) | y2 solubility in ScCO2 (mole fraction) [1, 18]: 0.1860 y2 × 10^4 (mole fraction) | y2 solubility in ScCO2 (mole fraction) [1, 19]: 0.2248 y2 × 10^4 (mole fraction) | y2 solubility in ScCO2 (mole fraction) [1, 20]: 0.2260 y2 × 10^4 (mole fraction) | y2 solubility in ScCO2 (mole fraction) [1, 21]: 0.0514 y2 × 10^4 (mole fraction) | y2 solubility in ScCO2 (mole fraction) [1, 22]: 0.0928 y2 × 10^4 (mole fraction) | y2 solubility in ScCO2 (mole fraction) [1, 23]: 0.2002 y2 × 10^4 (mole fraction) | y2 solubility in ScCO2 (mole fraction) [1, 24]: 0.2266 y2 × 10^4 (mole fraction) | y2 solubility in ScCO2 (mole fraction) [1, 25]: 0.2637 y2 × 10^4 (mole fraction) | y2 solubility in ScCO2 (mole fraction) [1, 26]: 0.2590 y2 × 10^4 (mole fraction) | cross over region of the solubility isotherms ([1]; ScCO2, isotherms 308 to 338 K): 16.5 MPa | solubility thermodynamic at 60 min [1, 3]: 64.3 µg/mL (≈ 143 µM) | solubility thermodynamic at 60 min [1, 4]: 106 µg/mL (≈ 235 µM) | solubility thermodynamic at 60 min [1, 5]: 116 µg/mL (≈ 256 µM) | solubility thermodynamic at 60 min [1, 6]: 126 µg/mL (≈ 281 µM) | solubility thermodynamic at 60 min [1, 7]: 138 µg/mL (≈ 306 µM) | solubility thermodynamic at 60 min [1, 8]: 169 µg/mL (≈ 375 µM) | solubility thermodynamic at 60 min [1, 9]: 47.9 µg/mL (≈ 106 µM) | solubility thermodynamic at 60 min [1, 10]: 90.1 µg/mL (≈ 200 µM) | solubility thermodynamic at 60 min [1, 11]: 123 µg/mL (≈ 272 µM) | solubility thermodynamic at 60 min [1, 12]: 135 µg/mL (≈ 300 µM) | solubility thermodynamic at 60 min [1, 13]: 181 µg/mL (≈ 402 µM) | solubility thermodynamic at 60 min [1, 14]: 186 µg/mL (≈ 412 µM) | solubility thermodynamic at 60 min [1, 15]: 31.9 µg/mL (≈ 70.7 µM) | solubility thermodynamic at 60 min [1, 16]: 70.2 µg/mL (≈ 156 µM) | solubility thermodynamic at 60 min [1, 17]: 120 µg/mL (≈ 267 µM) | solubility thermodynamic at 60 min [1, 18]: 147 µg/mL (≈ 325 µM) | solubility thermodynamic at 60 min [1, 19]: 185 µg/mL (≈ 410 µM) | solubility thermodynamic at 60 min [1, 20]: 192 µg/mL (≈ 426 µM) | solubility thermodynamic at 60 min [1, 21]: 20.4 µg/mL (≈ 45.2 µM) | solubility thermodynamic at 60 min [1, 22]: 53 µg/mL (≈ 118 µM) | solubility thermodynamic at 60 min [1, 23]: 134 µg/mL (≈ 297 µM) | solubility thermodynamic at 60 min [1, 24]: 165 µg/mL (≈ 366 µM) | solubility thermodynamic at 60 min [1, 25]: 203 µg/mL (≈ 450 µM) | solubility thermodynamic at 60 min [1, 26]: 208 µg/mL (≈ 461 µM) | Enthalpy of sublimation, ΔHsub ([2]; obtained with Bartle et al. model): ~49.653^c (approximate value) kJ/mol | Total entalpy, ΔHtotal ([2]; obtained with Chrastil model): 30.548^a kJ/mol | Total entalpy, ΔHtotal ([2]; obtained with Reformulated Chrastil model): 22.496^b kJ/mol
